Active and inactive are the calls of the source. The rule behind the calls is not given here.
Tests used:
[1] = system: A-431; assay: Antiproliferative activity against human A431 cells harboring wild type EGFR after 72 hrs by MTT assay; assay type: functional, cell-based; settings: A-431, 72 h
[2] = system: A549; assay: Antiproliferative activity against human A549 cells harboring wild type EGFR/K-ras mutant after 72 hrs by MTT assay; assay type: functional, cell-based; settings: A549, 72 h
[3] = system: HCC827; assay: Antiproliferative activity against human HCC827 cells harboring EGFR E746-A750 del mutant after 72 hrs by MTT assay; assay type: functional, cell-based; settings: HCC827, 72 h
[4] = system: NCI-H1975; assay: Antiproliferative activity against human NCI-H1975 cells harboring EGFR L858R/T790M double mutant after 72 hrs by MTT assay; assay type: functional, cell-based; settings: NCI-H1975, 72 h
[5] = system: SW480; assay: Antiproliferative activity against human SW480 cells harboring wild type EGFR after 72 hrs by MTT assay; assay type: functional, cell-based; settings: SW480, 72 h
[6] = target: Epidermal growth factor receptor (Homo sapiens, UniProt P00533, L858R); assay: Inhibition of EGFR L858R mutant (unknown origin) using ULight-poly GT as substrate preincubated for 120 mins followed by substrate addition measured after 2 hrs by spectrophotometric method
[7] = target: Epidermal growth factor receptor (Homo sapiens, UniProt P00533, L858R/T790M); assay: Inhibition of EGFR L858R/T790M double mutant (unknown origin) using ULight-poly GT as substrate preincubated for 30 mins followed by substrate addition measured after 1 hr by spectrophotometric method
[8] = target: T1, Epidermal growth factor receptor (Homo sapiens, UniProt P00533); assay: Inhibition of EGF-induced EGFR phosphorylation at Tyrosine residue in human A549 cells at 0.2 uM preincubated for 2 hrs followed by EGF stimulation measured after 10 mins by Western blot analysis; assay type: cell-based
[9] = target: T1, Epidermal growth factor receptor; assay: Inhibition of EGF-induced EGFR phosphorylation at Y1086 residue in human A549 cells at 0.2 uM preincubated for 2 hrs followed by EGF stimulation measured after 10 mins by Western blot analysis; assay type: cell-based
[10] = target: T1, Epidermal growth factor receptor; assay: Inhibition of EGF-induced EGFR activation in human A549 cells assessed as reduction in Akt phosphorylation at S473 residue at 0.2 uM preincubated for 2 hrs followed by EGF stimulation measured after 10 mins by Western blot analysis; assay type: cell-based
[11] = system: A549; assay: Effect on total Akt protein expression in human A549 cells at 0.2 to 5 uM after 2 hrs by Western blot analysis; assay type: ADME, cell-based; settings: a549, 2 h
[12] = system: A549; assay: Effect on total Erk1/2 protein expression in human A549 cells at 0.2 to 5 uM after 2 hrs by Western blot analysis; assay type: ADME, cell-based; settings: a549, 2 h
[13] = system: Epidermal growth factor receptor (Homo sapiens), P00533 [L858R,T790M]; assay: Inhibition of EGF-induced EGFR L858R/T790M double mutant phosphorylation at Tyrosine residue in human NCI-H1975 cells preincubated for 2 hrs followed by EGF stimulation measured after 10 mins by Western blot analysis; assay type: cell-based
[14] = system: Epidermal growth factor receptor (Homo sapiens), P00533 [L858R,T790M]; assay: Inhibition of EGF-induced EGFR L858R/T790M double mutant phosphorylation at Y1068 residue in human NCI-H1975 cells preincubated for 2 hrs followed by EGF stimulation measured after 10 mins by Western blot analysis; assay type: cell-based
[15] = system: Epidermal growth factor receptor (Homo sapiens), P00533 [L858R,T790M]; assay: Inhibition of EGF-induced EGFR L858R/T790M double mutant activation in human NCI-H1975 cells assessed as reduction in STAT3 phosphorylation at Y705 residue at 5 uM preincubated for 2 hrs followed by EGF stimulation measured after 10 mins by Western blot analysis; assay type: cell-based
[16] = system: A549; assay: Induction of apoptosis in human A549 cells assessed as late apoptotic cells at 4 uM after 48 hrs by Annexin V-FITC/propidium iodide satining based FACS analysis (reference value: 1.21%); assay type: functional
[17] = system: A549; assay: Induction of apoptosis in human A549 cells assessed as necrotic cells at 4 uM after 48 hrs by Annexin V-FITC/propidium iodide satining based FACS analysis (reference value: 0.14%); assay type: functional
[18] = system: A549; assay: Induction of apoptosis in human A549 cells assessed as viable cells at 3 uM after 48 hrs by Annexin V-FITC/propidium iodide satining based FACS analysis (reference value: 95.87%); assay type: functional; settings: A549, 48 h, read-out: Activity
[19] = system: A549; assay: Induction of apoptosis in human A549 cells assessed as late apoptotic cells at 2 uM after 48 hrs by Annexin V-FITC/propidium iodide satining based FACS analysis (reference value: 1.21%); assay type: functional
[20] = system: A549; assay: Induction of apoptosis in human A549 cells assessed as early apoptotic cells at 1 uM after 48 hrs by Annexin V-FITC/propidium iodide satining based FACS analysis (reference value: 2.78%); assay type: functional
[21] = system: A549; assay: Induction of apoptosis in human A549 cells after 48 hrs by Annexin V-FITC/propidium iodide satining based FACS analysis; assay type: functional, cell-based
[22] = system: A549; assay: Cell cycle arrest in human A549 cells assessed as accumulation at G0/G1 phase at 5 uM after 48 hrs by propidium iodide satining based FACS analysis (reference value: 48.87%); assay type: functional
[23] = system: A549; assay: Cell cycle arrest in human A549 cells assessed as accumulation at G0/G1 phase at 2 uM after 48 hrs by propidium iodide satining based FACS analysis (reference value: 48.87%); assay type: functional
[24] = system: A549; assay: Cell cycle arrest in human A549 cells assessed as accumulation at S phase at 2 uM after 48 hrs by propidium iodide satining based FACS analysis (reference value: 34.45%); assay type: functional
[25] = system: A549; assay: Cell cycle arrest in human A549 cells assessed as accumulation at G2/M phase at 2 uM after 48 hrs by propidium iodide satining based FACS analysis (reference value: 16.09%); assay type: functional
[26] = system: A549; assay: Cell cycle arrest in human A549 cells assessed as accumulation at S phase at 1 uM after 48 hrs by propidium iodide satining based FACS analysis (reference value: 34.45%); assay type: functional
[27] = system: A549; assay: Cell cycle arrest in human A549 cells assessed as accumulation at G0/G1 phase at 0.5 uM after 48 hrs by propidium iodide satining based FACS analysis (reference value: 48.87%); assay type: functional
[28] = system: A549; assay: Cell cycle arrest in human A549 cells assessed as accumulation at S phase at 0.5 uM after 48 hrs by propidium iodide satining based FACS analysis (reference value: 34.45%); assay type: functional
[29] = system: A549; assay: Cell cycle arrest in human A549 cells assessed as accumulation at G2/M phase at 0.5 uM after 48 hrs by propidium iodide satining based FACS analysis (reference value: 16.09%); assay type: functional
[30] = system: A549; assay: Cell cycle arrest in human A549 cells after 48 hrs by propidium iodide satining based FACS analysis; assay type: functional
[31] = target: T1, Epidermal growth factor receptor; settings: A549, at 5 µM
Description: Inhibition of EGF-induced EGFR phosphorylation at Tyrosine residue in human A549 cells at 5 uM preincubated for 2 hrs followed by EGF stimulation measured after 10 mins by Western blot analysis

[32] = target: T1, Epidermal growth factor receptor; settings: A549, at 5 µM; remark: listed apart in the source
Description: Inhibition of EGF-induced EGFR phosphorylation at Y1086 residue in human A549 cells at 5 uM preincubated for 2 hrs followed by EGF stimulation measured after 10 mins by Western blot analysis

[33] = target: T1, Epidermal growth factor receptor; settings: A549, at 5 µM; remark: listed apart in the source
Description: Inhibition of EGF-induced EGFR phosphorylation at Y992 residue in human A549 cells at 5 uM preincubated for 2 hrs followed by EGF stimulation measured after 10 mins by Western blot analysis

[34] = target: T1, Epidermal growth factor receptor; settings: A549, at 5 µM; remark: listed apart in the source
Description: Inhibition of EGF-induced EGFR activation in human A549 cells assessed as reduction in Akt phosphorylation at S473 residue at 5 uM preincubated for 2 hrs followed by EGF stimulation measured after 10 mins by Western blot analysis

Chain of Epidermal growth factor receptor (Homo sapiens), P00533 [L858R,T790M] (P00533 whole entry T790M/L858R, looked up): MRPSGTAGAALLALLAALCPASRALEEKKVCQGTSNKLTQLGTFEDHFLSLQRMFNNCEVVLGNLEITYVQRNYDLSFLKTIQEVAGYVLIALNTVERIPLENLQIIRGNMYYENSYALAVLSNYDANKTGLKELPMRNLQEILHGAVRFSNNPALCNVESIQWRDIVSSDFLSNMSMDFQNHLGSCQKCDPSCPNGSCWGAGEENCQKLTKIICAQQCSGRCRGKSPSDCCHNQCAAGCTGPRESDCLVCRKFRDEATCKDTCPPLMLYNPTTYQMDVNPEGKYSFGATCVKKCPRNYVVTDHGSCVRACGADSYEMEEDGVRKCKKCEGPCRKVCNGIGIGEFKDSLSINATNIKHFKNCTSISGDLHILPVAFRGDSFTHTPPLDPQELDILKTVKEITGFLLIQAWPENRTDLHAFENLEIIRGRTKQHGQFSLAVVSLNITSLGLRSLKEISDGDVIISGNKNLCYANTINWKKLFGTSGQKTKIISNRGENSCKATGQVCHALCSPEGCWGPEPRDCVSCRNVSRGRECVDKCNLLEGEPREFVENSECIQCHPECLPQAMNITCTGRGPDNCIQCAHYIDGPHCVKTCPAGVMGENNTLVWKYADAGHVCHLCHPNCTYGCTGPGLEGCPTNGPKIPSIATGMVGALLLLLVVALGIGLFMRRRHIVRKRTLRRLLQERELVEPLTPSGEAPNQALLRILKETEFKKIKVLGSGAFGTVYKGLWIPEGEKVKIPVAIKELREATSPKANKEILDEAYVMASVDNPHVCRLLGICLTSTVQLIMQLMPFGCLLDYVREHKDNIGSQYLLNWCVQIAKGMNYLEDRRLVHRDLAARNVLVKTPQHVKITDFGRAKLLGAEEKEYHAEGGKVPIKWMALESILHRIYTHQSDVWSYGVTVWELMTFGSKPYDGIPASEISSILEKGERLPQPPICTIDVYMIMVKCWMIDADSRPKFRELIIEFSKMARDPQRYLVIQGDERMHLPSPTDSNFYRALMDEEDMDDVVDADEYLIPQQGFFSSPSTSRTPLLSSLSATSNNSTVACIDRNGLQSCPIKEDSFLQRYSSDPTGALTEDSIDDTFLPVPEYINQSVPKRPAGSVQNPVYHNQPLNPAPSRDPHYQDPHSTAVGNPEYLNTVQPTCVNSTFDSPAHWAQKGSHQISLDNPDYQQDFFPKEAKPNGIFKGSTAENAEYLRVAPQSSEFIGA
T1 sequence (P00533 whole entry): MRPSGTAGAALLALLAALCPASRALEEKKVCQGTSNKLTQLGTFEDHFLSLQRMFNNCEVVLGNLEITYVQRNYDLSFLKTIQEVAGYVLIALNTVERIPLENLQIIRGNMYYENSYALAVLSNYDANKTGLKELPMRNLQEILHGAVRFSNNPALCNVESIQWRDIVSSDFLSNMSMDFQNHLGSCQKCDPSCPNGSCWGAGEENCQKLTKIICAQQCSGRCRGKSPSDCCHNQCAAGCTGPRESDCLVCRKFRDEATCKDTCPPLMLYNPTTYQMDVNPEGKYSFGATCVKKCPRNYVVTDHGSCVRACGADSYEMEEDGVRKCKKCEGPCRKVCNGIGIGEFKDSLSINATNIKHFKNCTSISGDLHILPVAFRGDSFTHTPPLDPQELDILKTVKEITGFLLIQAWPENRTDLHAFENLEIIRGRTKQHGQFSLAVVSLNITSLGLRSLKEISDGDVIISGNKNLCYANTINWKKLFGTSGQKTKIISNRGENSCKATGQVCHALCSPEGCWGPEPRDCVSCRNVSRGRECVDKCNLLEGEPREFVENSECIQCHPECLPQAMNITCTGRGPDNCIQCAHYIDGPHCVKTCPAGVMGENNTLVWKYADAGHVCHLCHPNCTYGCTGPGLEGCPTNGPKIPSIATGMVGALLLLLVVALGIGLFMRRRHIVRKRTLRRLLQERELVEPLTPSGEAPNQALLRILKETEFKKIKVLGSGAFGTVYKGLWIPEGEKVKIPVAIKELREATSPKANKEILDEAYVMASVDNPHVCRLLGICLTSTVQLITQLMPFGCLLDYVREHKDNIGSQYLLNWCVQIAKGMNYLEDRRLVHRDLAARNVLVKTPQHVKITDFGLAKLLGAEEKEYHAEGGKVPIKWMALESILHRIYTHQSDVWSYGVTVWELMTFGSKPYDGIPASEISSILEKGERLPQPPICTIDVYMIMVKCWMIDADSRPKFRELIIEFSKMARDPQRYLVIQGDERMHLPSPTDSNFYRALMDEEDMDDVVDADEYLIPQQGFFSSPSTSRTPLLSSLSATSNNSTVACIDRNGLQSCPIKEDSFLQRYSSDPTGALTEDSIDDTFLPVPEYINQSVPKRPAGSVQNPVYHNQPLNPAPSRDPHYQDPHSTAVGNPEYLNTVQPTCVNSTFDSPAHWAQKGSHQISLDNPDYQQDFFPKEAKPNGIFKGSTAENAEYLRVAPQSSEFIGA
Chain of Epidermal growth factor receptor (Homo sapiens, UniProt P00533, L858R/T790M) (P00533 25-1210 T790M/L858R limits assumed): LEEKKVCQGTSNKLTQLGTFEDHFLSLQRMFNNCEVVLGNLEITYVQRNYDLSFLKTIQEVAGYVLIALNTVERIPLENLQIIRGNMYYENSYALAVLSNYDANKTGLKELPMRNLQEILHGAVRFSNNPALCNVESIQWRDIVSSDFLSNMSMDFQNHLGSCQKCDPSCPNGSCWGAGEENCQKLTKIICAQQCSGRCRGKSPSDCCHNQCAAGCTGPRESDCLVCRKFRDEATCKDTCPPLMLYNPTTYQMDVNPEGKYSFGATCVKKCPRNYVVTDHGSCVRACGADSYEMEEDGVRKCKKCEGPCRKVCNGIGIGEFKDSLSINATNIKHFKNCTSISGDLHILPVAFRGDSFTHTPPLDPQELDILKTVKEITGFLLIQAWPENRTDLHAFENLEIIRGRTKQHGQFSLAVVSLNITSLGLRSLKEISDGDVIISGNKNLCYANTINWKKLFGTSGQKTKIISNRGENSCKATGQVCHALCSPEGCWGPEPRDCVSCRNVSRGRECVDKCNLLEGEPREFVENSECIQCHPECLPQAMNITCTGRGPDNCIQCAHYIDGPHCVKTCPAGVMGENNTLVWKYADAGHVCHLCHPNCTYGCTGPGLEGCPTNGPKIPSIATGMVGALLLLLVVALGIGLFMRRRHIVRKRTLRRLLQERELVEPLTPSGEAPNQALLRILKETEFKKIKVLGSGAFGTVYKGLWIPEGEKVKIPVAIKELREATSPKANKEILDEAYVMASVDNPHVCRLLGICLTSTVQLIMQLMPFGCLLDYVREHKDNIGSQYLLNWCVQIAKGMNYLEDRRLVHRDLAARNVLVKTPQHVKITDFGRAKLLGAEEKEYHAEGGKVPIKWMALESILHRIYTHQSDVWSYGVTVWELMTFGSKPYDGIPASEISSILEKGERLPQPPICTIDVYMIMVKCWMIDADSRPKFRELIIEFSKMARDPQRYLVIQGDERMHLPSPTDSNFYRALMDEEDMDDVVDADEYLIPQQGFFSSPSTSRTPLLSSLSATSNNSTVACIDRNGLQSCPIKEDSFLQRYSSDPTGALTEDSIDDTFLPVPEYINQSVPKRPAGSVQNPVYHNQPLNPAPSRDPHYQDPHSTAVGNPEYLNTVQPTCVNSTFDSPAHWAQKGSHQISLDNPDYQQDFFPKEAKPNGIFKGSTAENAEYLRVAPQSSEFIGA
Chain of Epidermal growth factor receptor (Homo sapiens, UniProt P00533, L858R) (P00533 25-1210 L858R limits assumed): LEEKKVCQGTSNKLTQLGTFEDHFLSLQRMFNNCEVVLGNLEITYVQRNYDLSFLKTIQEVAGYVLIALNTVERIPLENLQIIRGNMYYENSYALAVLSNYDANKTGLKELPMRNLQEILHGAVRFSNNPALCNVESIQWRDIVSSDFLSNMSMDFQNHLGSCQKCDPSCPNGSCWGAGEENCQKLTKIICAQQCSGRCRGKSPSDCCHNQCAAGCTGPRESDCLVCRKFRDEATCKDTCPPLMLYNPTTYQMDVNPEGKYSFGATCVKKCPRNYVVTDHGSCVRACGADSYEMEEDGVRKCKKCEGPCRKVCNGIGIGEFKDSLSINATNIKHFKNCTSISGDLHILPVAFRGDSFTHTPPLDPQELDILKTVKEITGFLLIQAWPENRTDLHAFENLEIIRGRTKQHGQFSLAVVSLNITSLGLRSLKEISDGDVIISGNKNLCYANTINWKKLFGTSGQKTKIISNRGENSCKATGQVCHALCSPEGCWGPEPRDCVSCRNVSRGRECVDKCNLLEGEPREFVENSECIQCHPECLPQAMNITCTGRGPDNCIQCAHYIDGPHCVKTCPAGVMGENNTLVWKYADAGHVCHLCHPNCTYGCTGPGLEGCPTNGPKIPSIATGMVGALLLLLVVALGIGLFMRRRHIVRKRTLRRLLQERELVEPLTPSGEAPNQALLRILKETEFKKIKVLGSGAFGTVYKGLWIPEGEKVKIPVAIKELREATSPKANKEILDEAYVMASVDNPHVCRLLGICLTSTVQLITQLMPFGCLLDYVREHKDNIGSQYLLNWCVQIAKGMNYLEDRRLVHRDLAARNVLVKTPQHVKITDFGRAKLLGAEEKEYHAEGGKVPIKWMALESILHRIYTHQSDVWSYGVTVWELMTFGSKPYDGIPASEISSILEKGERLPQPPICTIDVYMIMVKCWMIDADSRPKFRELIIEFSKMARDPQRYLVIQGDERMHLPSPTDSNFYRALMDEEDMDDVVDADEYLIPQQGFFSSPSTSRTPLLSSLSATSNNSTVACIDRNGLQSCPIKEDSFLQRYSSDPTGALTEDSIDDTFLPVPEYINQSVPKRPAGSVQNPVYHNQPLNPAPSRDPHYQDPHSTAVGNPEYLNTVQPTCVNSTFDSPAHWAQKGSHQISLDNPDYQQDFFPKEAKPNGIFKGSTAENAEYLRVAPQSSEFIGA

## Fc1cccc(COc2ccc(Nc3ncnc4cc(OCCCN5CCOCC5)c(OCCCN5CCOCC5)cc34)cc2Cl)c1
[1]
  IC50: 1310 nM
[2]
  IC50: 1650 nM
[3]
  IC50: 370 nM
[4]
  IC50: 4870 nM
[5]
  IC50: 3270 nM
[6]
  IC50: 323 nM
[7]
  IC50: > 2000 nM
[8]
  inhibition: Active
[9]
  inhibition: Active
[10]
  inhibition: Active
[11]
  Activity: Non-Toxic
[12]
  Activity: Non-Toxic
[13]
  inhibition: Dose-dependent effect
[14]
  inhibition: Dose-dependent effect
[15]
  inhibition: inactive
[16]
  Activity: 36.18%
[17]
  Activity: 0.57%
[18]
  viability at 3 µM: 82.8%
[19]
  Activity: 7.37%
[20]
  Activity: 3.9%
[21]
  Activity: Dose-dependent effect
[22]
  Activity: 73.54%
[23]
  Activity: 58.45%
[24]
  Activity: 30.54%
[25]
  Activity: 10.56%
[26]
  Activity: 34.83%
[27]
  Activity: 50.78%
[28]
  Activity: 33.8%
[29]
  Activity: 14.96%
[30]
  Activity: Dose-dependent effect
[31]
  inhibition: Active
[32]
  inhibition: Active
[33]
  inhibition: Active
[34]
  inhibition: Active

Source: ChEMBL document CHEMBL4145533, “6,7-Dimorpholinoalkoxy quinazoline derivatives as potent EGFR inhibitors with enhanced antiproliferative activities against tumor cells” (Eur J Med Chem, 2018)
